Reference: US20100298141A1, “SUBSTITUTED PYRIDINE N-OXIDE HERBICIDES” (E. I. DU PONT DE NEMOURS AND COMPANY, priority 2007, published 2010)

Tests used:
wild oat = experiment: Test D preemergence test; format: in vivo, Avena fatua; conditions: scale 0 to 100
Excerpt: (§1) Seeds of plant species selected from annual bluegrass (Poa annua), blackgrass (Alopecurus myosuroides), downy bromegrass (Bromus tectorum), field violet (Viola arvensis), green foxtail (Setaria viridis), Italian ryegrass (Lolium multiflorum), littleseed canarygrass (Phalaris minor), spring wheat (Triticum aestivum), wild oat (Avena fatua), […]), winter barley (Hordeum vulgare), and winter wheat (Triticum aestivum) were planted and treated preemergence with test chemicals formulated in a non-phytotoxic solvent mixture which included a surfactant. […] A dash (-) response means no test result.

winter wheat = experiment: Test D preemergence test; format: in vivo, Triticum aestivum; conditions: scale 0 to 100
Excerpt: as §1

spring wheat = experiment: Test D preemergence test; format: in vivo, Triticum aestivum; conditions: scale 0 to 100
Excerpt: as §1

field violet = experiment: Test D preemergence test; format: in vivo, Viola arvensis; conditions: scale 0 to 100
Excerpt: as §1

woolly cupgrass = experiment: Test G preemergence test; format: in vivo, Eriochloa villosa; conditions: scale 0 to 100
umbrella sedge = experiment: Test B flooded paddy test; format: in vivo, Cyperus difformis; conditions: Flood, 250 g ai/ha, 13 to 15 days; scale 0 to 100, 0 no effect, 100 complete control
Excerpt: (§2) At time of treatment, test pots were flooded to 3 cm above the soil surface, treated by application of test compounds directly to the paddy water, and then maintained at that water depth for the duration of the test. Treated plants and controls were maintained in a greenhouse for 13 to 15 days, after which time all species were compared to controls and visually evaluated. […] A dash (-) response means no test result.

eastern black nightshade = experiment: Test G preemergence test; format: in vivo, Solanum ptycanthum; conditions: scale 0 to 100
goosegrass = experiment: Test G preemergence test; format: in vivo, Eleusine indica; conditions: scale 0 to 100
sorghum = experiment: Test G preemergence test; format: in vivo, Sorghum vulgare; conditions: scale 0 to 100
Italian ryegrass = experiment: Test D preemergence test; format: in vivo, Lolium multiflorum; conditions: scale 0 to 100
Excerpt: as §1

broadleaf signalgrass = experiment: Test G preemergence test; format: in vivo, Brachiaria platyphylla; conditions: scale 0 to 100
giant foxtail = experiment: Test G preemergence test; format: in vivo, Setaria faberii; conditions: scale 0 to 100
tall waterhemp = experiment: Test G preemergence test; format: in vivo, Amaranthus tuberculatos; conditions: scale 0 to 100
barnyardgrass [1] = experiment: Test B flooded paddy test; format: in vivo, Echinochloa crus-galli; conditions: Flood, 250 g ai/ha, 13 to 15 days; scale 0 to 100, 0 no effect, 100 complete control
Excerpt: as §2

yellow foxtail = experiment: Test G preemergence test; format: in vivo, Pennisetum glaucum; conditions: scale 0 to 100
barnyardgrass [2] = experiment: Test G preemergence test; format: in vivo, Echinochloa crus-galli; conditions: scale 0 to 100
large crabgrass = experiment: Test G preemergence test; format: in vivo, Digitaria sanguinalis; conditions: scale 0 to 100
green foxtail = experiment: Test D preemergence test; format: in vivo, Setaria viridis; conditions: scale 0 to 100
Excerpt: as §1

downy bromegrass = experiment: Test D preemergence test; format: in vivo, Bromus tectorum; conditions: scale 0 to 100
Excerpt: as §1

lambsquarters = experiment: Test G preemergence test; format: in vivo, Chenopodium album; conditions: scale 0 to 100
windgrass = experiment: Test D preemergence test; format: in vivo, Apera spica-venti; conditions: scale 0 to 100
Excerpt: as §1

corn = experiment: Test G preemergence test; format: in vivo, Zea mays; conditions: scale 0 to 100
duck salad = experiment: Test B flooded paddy test; format: in vivo, Heteranthera limosa; conditions: Flood, 250 g ai/ha, 13 to 15 days; scale 0 to 100, 0 no effect, 100 complete control
Excerpt: as §2

soybean = experiment: Test G preemergence test; format: in vivo, Glycine max; conditions: scale 0 to 100
fall panicum = experiment: Test G preemergence test; format: in vivo, Panicum dichotomiflorum; conditions: scale 0 to 100

Cc1cc[n+]([O-])c(S(=O)(=O)Cc2c(C(F)(F)F)nn(C)c2OC(F)F)c1 [Compound 2]
Plant response rating, Oat, Wild (wild oat; 31 g ai/ha): 0
Plant response rating, Oat, Wild (wild oat; 62 g ai/ha): 0
Plant response rating, Oat, Wild (wild oat; 125 g ai/ha): 0
Plant response rating, Oat, Wild (wild oat; 250 g ai/ha): 10
Plant response rating, Wheat, Winter (winter wheat; 31 g ai/ha): 0
Plant response rating, Wheat, Winter (winter wheat; 62 g ai/ha): 0
Plant response rating, Wheat, Winter (winter wheat; 125 g ai/ha): 15
Plant response rating, Wheat, Winter (winter wheat; 250 g ai/ha): 25
Plant response rating, Wheat, Spring (spring wheat; 31 g ai/ha): 0
Plant response rating, Wheat, Spring (spring wheat; 62 g ai/ha): 0
Plant response rating, Wheat, Spring (spring wheat; 125 g ai/ha): 0
Plant response rating, Wheat, Spring (spring wheat; 250 g ai/ha): 15
Plant response rating, Field Violet (field violet; 31 g ai/ha): 0
Plant response rating, Field Violet (field violet; 62 g ai/ha): 0
Plant response rating, Field Violet (field violet; 125 g ai/ha): 95
Plant response rating, Field Violet (field violet; 250 g ai/ha): 100
Plant response rating, Cupgrass, Woolly (woolly cupgrass; 31 g ai/ha): 0
Plant response rating, Cupgrass, Woolly (woolly cupgrass; 62 g ai/ha): 0
Plant response rating, Cupgrass, Woolly (woolly cupgrass; 125 g ai/ha): 95
Plant response rating, Cupgrass, Woolly (woolly cupgrass; 250 g ai/ha): 95
Plant response rating, Umbrella Sedge (umbrella sedge): 100
Plant response rating, Nightshade (eastern black nightshade; 31 g ai/ha): 0
Plant response rating, Nightshade (eastern black nightshade; 62 g ai/ha): 40
Plant response rating, Nightshade (eastern black nightshade; 125 g ai/ha): 40
Plant response rating, Nightshade (eastern black nightshade; 250 g ai/ha): 45
Plant response rating, Goosegrass (goosegrass; 31 g ai/ha): 95
Plant response rating, Goosegrass (goosegrass; 62 g ai/ha): 100
Plant response rating, Goosegrass (goosegrass; 125 g ai/ha): 100
Plant response rating, Goosegrass (goosegrass; 250 g ai/ha): 100
Plant response rating, Sorghum (sorghum; 31 g ai/ha): 0
Plant response rating, Sorghum (sorghum; 62 g ai/ha): 0
Plant response rating, Sorghum (sorghum; 125 g ai/ha): 60
Plant response rating, Sorghum (sorghum; 250 g ai/ha): 100
Plant response rating, Ryegrass, Italian (Italian ryegrass; 31 g ai/ha): 0
Plant response rating, Ryegrass, Italian (Italian ryegrass; 62 g ai/ha): 0
Plant response rating, Ryegrass, Italian (Italian ryegrass; 125 g ai/ha): 30
Plant response rating, Ryegrass, Italian (Italian ryegrass; 250 g ai/ha): 50
Plant response rating, Signalgrass (broadleaf signalgrass; 31 g ai/ha): 0
Plant response rating, Signalgrass (broadleaf signalgrass; 62 g ai/ha): 50
Plant response rating, Signalgrass (broadleaf signalgrass; 125 g ai/ha): 65
Plant response rating, Signalgrass (broadleaf signalgrass; 250 g ai/ha): 65
Plant response rating, Foxtail, Giant (giant foxtail; 31 g ai/ha): 0
Plant response rating, Foxtail, Giant (giant foxtail; 62 g ai/ha): 35
Plant response rating, Foxtail, Giant (giant foxtail; 125 g ai/ha): 100
Plant response rating, Foxtail, Giant (giant foxtail; 250 g ai/ha): 100
Plant response rating, Waterhemp (tall waterhemp; 31 g ai/ha): 20
Plant response rating, Waterhemp (tall waterhemp; 62 g ai/ha): 100
Plant response rating, Waterhemp (tall waterhemp; 125 g ai/ha): 100
Plant response rating, Waterhemp (tall waterhemp; 250 g ai/ha): 100
Plant response rating, Barnyardgrass (barnyardgrass [1]): 80
Plant response rating, Foxtail, Yellow (yellow foxtail; 31 g ai/ha): 0
Plant response rating, Foxtail, Yellow (yellow foxtail; 62 g ai/ha): 20
Plant response rating, Foxtail, Yellow (yellow foxtail; 125 g ai/ha): 100
Plant response rating, Foxtail, Yellow (yellow foxtail; 250 g ai/ha): 100
Plant response rating, Barnyardgrass (barnyardgrass [2]; 31 g ai/ha): 15
Plant response rating, Barnyardgrass (barnyardgrass [2]; 62 g ai/ha): 100
Plant response rating, Barnyardgrass (barnyardgrass [2]; 125 g ai/ha): 100
Plant response rating, Barnyardgrass (barnyardgrass [2]; 250 g ai/ha): 100
Plant response rating, Crabgrass, Large (large crabgrass; 31 g ai/ha): 0
Plant response rating, Crabgrass, Large (large crabgrass; 62 g ai/ha): 75
Plant response rating, Crabgrass, Large (large crabgrass; 125 g ai/ha): 100
Plant response rating, Crabgrass, Large (large crabgrass; 250 g ai/ha): 100
Plant response rating, Foxtail, Green (green foxtail; 31 g ai/ha): 0
Plant response rating, Foxtail, Green (green foxtail; 62 g ai/ha): 30
Plant response rating, Foxtail, Green (green foxtail; 125 g ai/ha): 55
Plant response rating, Foxtail, Green (green foxtail; 250 g ai/ha): 65
Plant response rating, Bromegrass, Downy (downy bromegrass; 31 g ai/ha): 0
Plant response rating, Bromegrass, Downy (downy bromegrass; 62 g ai/ha): 20
Plant response rating, Bromegrass, Downy (downy bromegrass; 125 g ai/ha): 50
Plant response rating, Bromegrass, Downy (downy bromegrass; 250 g ai/ha): 55
Plant response rating, Lambsquarters (lambsquarters; 31 g ai/ha): 0
Plant response rating, Lambsquarters (lambsquarters; 62 g ai/ha): 0
Plant response rating, Lambsquarters (lambsquarters; 125 g ai/ha): 10
Plant response rating, Lambsquarters (lambsquarters; 250 g ai/ha): 15
Plant response rating, Windgrass (windgrass; 31 g ai/ha): 100
Plant response rating, Windgrass (windgrass; 62 g ai/ha): 100
Plant response rating, Windgrass (windgrass; 125 g ai/ha): 100
Plant response rating, Windgrass (windgrass; 250 g ai/ha): 100
Plant response rating, Corn (corn; 31 g ai/ha): 0
Plant response rating, Corn (corn; 62 g ai/ha): 0
Plant response rating, Corn (corn; 125 g ai/ha): 0
Plant response rating, Corn (corn; 250 g ai/ha): 10
Plant response rating, Ducksalad (duck salad): 100
Plant response rating, Soybean (soybean; 31 g ai/ha): 0
Plant response rating, Soybean (soybean; 62 g ai/ha): 0
Plant response rating, Soybean (soybean; 125 g ai/ha): 0
Plant response rating, Soybean (soybean; 250 g ai/ha): 0
Plant response rating, Fall Panicum (fall panicum; 31 g ai/ha): 25
Plant response rating, Fall Panicum (fall panicum; 62 g ai/ha): 65
Plant response rating, Fall Panicum (fall panicum; 125 g ai/ha): 100
Plant response rating, Fall Panicum (fall panicum; 250 g ai/ha): 100
